Tested on: immune cells in BALF of OVA-sensitized mice
Test: Percentage of subpopulation of immune cells in BALF
Format: in vivo, BALB/c mice
Details: Pred group: 0.1 mg Prednisolone per day for 5 days; % of total BALF cells; mean±SD
Text: In this example the mice were induced to become allergic by using ovalbumin (OVA) as an allergen, and the mice were confirmed suffering the induced asthma from the appearance of OVE-specific IgE antibody in the mice. Mice in different groups were fed with a Poria extract or pure lanostane compound during the experimental period, and each mouse was subjected to an airway hyperresponsiveness test after one-month feeding, from which an important index reflecting the severe degree of the asthma of the mouse was determined. In this example different immune cells in bronchoalveolar lavage fluid (BALF) of the mice were also observed as to whether they particularly eosinophils and neutrophils were affected. Further, a chemoattractant factor, Eotaxin, was an important observation factor in this example for observing whether the secretion of cytokines changed dramatically.
(1) Experimental animal: Inbred BALB/c female mice were maintained by standard laboratory chow ad libitum. Room temperature was maintained at 19-24° C. and relative humidity at 50-70%. […]
As all groups of mice had finished of AHR analysis, they were sacrificed on next day. […] The total cell numbers were determined with 0.5 ml CM-10, wherein the density of cells was adjusted to 3×10^5 cells/ml. […] Two hundreds of leukocytes were counted on each slide, which includes four different cells, eosinophil, neutrophil, lymphocyte and monocyte. […]

C[C@]12C=CC(=O)C=C1CC[C@@H]1[C@@H]2[C@@H](O)C[C@@]2(C)[C@H]1CC[C@]2(O)C(=O)CO [Pred, Prednisolone]
Monocyte % in BALF: 13.3 ± 7.8%
Neutrophil % in BALF: 0.8 ± 0.8%
